Source: patent US11006631B2, “Substituted pyrimidinyloxy pyridine derivatives as herbicides” (FMC Corporation, priority 2015, dated 2021)

Tests used:
Assay type in all cases: in vivo
[1] = tested on: galium (catchweed bedstraw, Galium aparine); assay: Test A postemergence, galium; details: 0 to 100 scale
Text: (§1) Seeds of plant species selected from bamyardgrass (Echinochloa crus-galli), kochia (Kochia scoparia), ragweed (common ragweed, Ambrosia elatior), ryegrass, Italian (Italian ryegrass, Lolium multiflorum), foxtail, giant (giant foxtail, Setaria faberii), pigweed (Amaranthus retroflexus), crabgrass, large (large crabgrass, Digitaria sanguinalis), momingglory (Ipomoea spp.), velvetleaf (Abutilon theophrasti), wheat (Triticum aestivum), and corn (Zea mays) were planted into a blend of loam soil and sand and treated preemergence with a directed soil spray using test chemicals formulated in a non-phytotoxic solvent mixture which included a surfactant. At the same time, plants selected from these crop and weed species and also blackgrass (Alopecurus myosuroides), and galium (catchweed bedstraw, Galium aparine) were planted in pots containing the same blend of loam soil and sand and treated with postemergence applications of test chemicals formulated in the same manner. Plants ranged in height from 2 to 10 cm and were in the one- to two-leaf stage for the postemergence treatment. Treated plants and untreated controls were maintained in a greenhouse for approximately 10 days, after which time all treated plants were compared to untreated controls and visually evaluated for injury. Plant response ratings, summarized in Table A, are based on a 0 to 100 scale where 0 is no effect and 100 is complete control. A dash (-) response means no test result.

[2] = tested on: blackgrass (Alopecurus myosuroides); assay: Test A postemergence, blackgrass; details: 0 to 100 scale
Text: as §1

[3] = tested on: ragweed (common ragweed, Ambrosia elatior); assay: Test A preemergence, ragweed; details: 0 to 100 scale
Text: as §1

[4] = tested on: foxtail, giant (giant foxtail, Setaria faberii); assay: Test A postemergence, foxtail, giant; details: 0 to 100 scale
Text: as §1

[5] = tested on: ragweed (common ragweed, Ambrosia elatior); assay: Test A postemergence, ragweed; details: 0 to 100 scale
Text: as §1

[6] = tested on: barnyardgrass (Echinochloa crus-galli); assay: Test A preemergence, barnyardgrass; details: 0 to 100 scale
Text: as §1

kochia (Kochia scoparia) [7] = assay: Test A preemergence, kochia; details: 0 to 100 scale
Text: as §1

kochia (Kochia scoparia) [8] = assay: Test A postemergence, kochia; details: 0 to 100 scale
Text: as §1

[9] = tested on: barnyardgrass (Echinochloa crus-galli); assay: Test A postemergence, barnyardgrass; details: 0 to 100 scale
Text: as §1

[10] = tested on: pigweed (Amaranthus retroflexus); assay: Test A postemergence, pigweed; details: 0 to 100 scale
Text: as §1

[11] = tested on: pigweed (Amaranthus retroflexus); assay: Test A preemergence, pigweed; details: 0 to 100 scale
Text: as §1

[12] = tested on: foxtail, giant (giant foxtail, Setaria faberii); assay: Test A preemergence, foxtail, giant; details: 0 to 100 scale
Text: as §1

[13] = tested on: ryegrass, Italian (Italian ryegrass, Lolium multiflorum); assay: Test A postemergence, ryegrass, Italian; details: 0 to 100 scale
Text: as §1

corn (Zea mays) = assay: Test A postemergence, corn; details: 0 to 100 scale
Text: as §1

[14] = tested on: ryegrass, Italian (Italian ryegrass, Lolium multiflorum); assay: Test A preemergence, ryegrass, Italian; details: 0 to 100 scale
Text: as §1

[15] = tested on: wheat (Triticum aestivum); assay: Test A postemergence, wheat; details: 0 to 100 scale
Text: as §1

[16] = tested on: ducksalad (Heteranthera limosa); assay: Test B flooded paddy test, ducksalad; details: Flood, 250 g ai/ha; scale of 0 to 100
Description: (§2) Plant species in the flooded paddy test selected from rice (Oryza sativa), sedge, umbrella (small-flower umbrella sedge, Cyperus difformis), ducksalad (Heteranthera limosa), and barnyardgrass (Echinochloa crus-galli) were grown to the 2-leaf stage for testing. At time of treatment, test pots were flooded to 3 cm above the soil surface, treated by application of test compounds directly to the paddy water, and then maintained at that water depth for the duration of the test. Treated plants and controls were maintained in a greenhouse for 13 to 15 days, after which time all species were compared to controls and visually evaluated. Plant response ratings, summarized in Table B, are based on a scale of 0 to 100 where 0 is no effect and 100 is complete control. A dash (-) response means no test result.

[17] = tested on: barnyardgrass (Echinochloa crus-galli); assay: Test B flooded paddy test, barnyardgrass; details: Flood, 250 g ai/ha; scale of 0 to 100
Description: as §2

[18] = tested on: sedge, umbrella (small-flower umbrella sedge, Cyperus difformis); assay: Test B flooded paddy test, sedge, umbrella; details: Flood, 250 g ai/ha; scale of 0 to 100
Description: as §2

rice (Oryza sativa) = assay: Test B flooded paddy test, rice; details: Flood, 250 g ai/ha; scale of 0 to 100
Description: as §2

Compound | Plant response rating, Galium ([1]; 125 g ai/ha) | Plant response rating, Ducksalad [16] | Plant response rating, Blackgrass ([2]; 125 g ai/ha) | Plant response rating, Ragweed ([3]; 125 g ai/ha) | Plant response rating, Foxtail, Giant ([4]; 125 g ai/ha) | Plant response rating, Ragweed ([5]; 125 g ai/ha) | Plant response rating, Barnyardgrass ([6]; 125 g ai/ha) | Plant response rating, Kochia (kochia (Kochia scoparia) [7]; 125 g ai/ha) | Plant response rating, Kochia (kochia (Kochia scoparia) [8]; 125 g ai/ha) | Plant response rating, Barnyardgrass [17] | Plant response rating, Sedge, Umbrella [18] | Plant response rating, Barnyardgrass ([9]; 125 g ai/ha) | Plant response rating, Pigweed ([10]; 125 g ai/ha) | Plant response rating, Pigweed ([11]; 125 g ai/ha) | Plant response rating, Foxtail, Giant ([12]; 125 g ai/ha) | Plant response rating, Ryegrass, Italian ([13]; 125 g ai/ha) | Plant response rating, Rice (rice (Oryza sativa)) | Plant response rating, Corn (corn (Zea mays); 125 g ai/ha) | Plant response rating, Ryegrass, Italian ([14]; 125 g ai/ha) | Plant response rating, Wheat ([15]; 125 g ai/ha) | other results
[O-][n+]1cccc(Oc2ncc(Cl)cn2)c1-n1cc(Br)cn1 [Compound 11] | – | – | – | – | – | – | – | – | – | – | – | – | – | – | – | – | – | – | – | – | Plant response rating, Galium ([1]; 1000 g ai/ha): 40; Plant response rating, Blackgrass ([2]; 1000 g ai/ha): 10; Plant response rating, Ragweed ([3]; 1000 g ai/ha): 30; Plant response rating, Foxtail, Giant ([4]; 1000 g ai/ha): 0; Plant response rating, Ragweed ([5]; 1000 g ai/ha): 20; Plant response rating, Barnyardgrass ([6]; 1000 g ai/ha): 0; Plant response rating, Kochia (kochia (Kochia scoparia) [7]; 1000 g ai/ha): 30; Plant response rating, Kochia (kochia (Kochia scoparia) [8]; 1000 g ai/ha): 60; Plant response rating, Barnyardgrass ([9]; 1000 g ai/ha): 0; Plant response rating, Pigweed ([10]; 1000 g ai/ha): 90; Plant response rating, Pigweed ([11]; 1000 g ai/ha): 100; Plant response rating, Foxtail, Giant ([12]; 1000 g ai/ha): 0; Plant response rating, Ryegrass, Italian ([13]; 1000 g ai/ha): 0; Plant response rating, Corn (corn (Zea mays); 1000 g ai/ha): 0; Plant response rating, Ryegrass, Italian ([14]; 1000 g ai/ha): 0; Plant response rating, Wheat ([15]; 1000 g ai/ha): 0
FC(F)(F)c1cc(-c2ncccc2Oc2ncc(Cl)cn2)ccn1 [Compound 14] | 50 | 40 | 10 | 0 | 60 | 10 | 40 | 100 | 80 | 0 | 50 | 40 | 100 | 100 | 90 | 30 | 0 | 20 | 10 | 0 | Plant response rating, Galium ([1]; 500 g ai/ha): 90; Plant response rating, Blackgrass ([2]; 500 g ai/ha): 90; Plant response rating, Ragweed ([3]; 500 g ai/ha): 20; Plant response rating, Foxtail, Giant ([4]; 500 g ai/ha): 90; Plant response rating, Ragweed ([5]; 500 g ai/ha): 30; Plant response rating, Barnyardgrass ([6]; 500 g ai/ha): 100; Plant response rating, Kochia (kochia (Kochia scoparia) [7]; 500 g ai/ha): 100; Plant response rating, Kochia (kochia (Kochia scoparia) [8]; 500 g ai/ha): 100; Plant response rating, Barnyardgrass ([9]; 500 g ai/ha): 60; Plant response rating, Pigweed ([10]; 500 g ai/ha): 100; Plant response rating, Pigweed ([11]; 500 g ai/ha): 100; Plant response rating, Foxtail, Giant ([12]; 500 g ai/ha): 100; Plant response rating, Ryegrass, Italian ([13]; 500 g ai/ha): 40; Plant response rating, Corn (corn (Zea mays); 500 g ai/ha): 40; Plant response rating, Ryegrass, Italian ([14]; 500 g ai/ha): 20; Plant response rating, Wheat ([15]; 500 g ai/ha): 10
[O-][n+]1cccc(Oc2ncc(Cl)cn2)c1-c1cc(C(F)F)on1 [Compound 8, 5-chloro-2-[[2-[5-(difluoromethyl)-3-isoxazolyl]-1-oxido-3-pyridinyl]oxy]pyrimidine] | 60 | 40 | 10 | 0 | 10 | 50 | 0 | 40 | 70 | 0 | 0 | 10 | 70 | 90 | 10 | 0 | 0 | 20 | 0 | 20 | Plant response rating, Galium ([1]; 31 g ai/ha): 40; Plant response rating, Blackgrass ([2]; 31 g ai/ha): 0; Plant response rating, Ragweed ([3]; 31 g ai/ha): 0; Plant response rating, Foxtail, Giant ([4]; 31 g ai/ha): 0; Plant response rating, Ragweed ([5]; 31 g ai/ha): 30; Plant response rating, Barnyardgrass ([6]; 31 g ai/ha): 0; Plant response rating, Kochia (kochia (Kochia scoparia) [7]; 31 g ai/ha): 0; Plant response rating, Kochia (kochia (Kochia scoparia) [8]; 31 g ai/ha): 40; Plant response rating, Barnyardgrass ([9]; 31 g ai/ha): 0; Plant response rating, Pigweed ([10]; 31 g ai/ha): 50; Plant response rating, Pigweed ([11]; 31 g ai/ha): 40; Plant response rating, Foxtail, Giant ([12]; 31 g ai/ha): 0; Plant response rating, Ryegrass, Italian ([13]; 31 g ai/ha): 0; Plant response rating, Corn (corn (Zea mays); 31 g ai/ha): 0; Plant response rating, Ryegrass, Italian ([14]; 31 g ai/ha): 0; Plant response rating, Wheat ([15]; 31 g ai/ha): 10
Cc1cnc(-n2ccc(C(F)(F)F)n2)c(Oc2ncc(Cl)cn2)c1 [Compound 13] | 0 | 0 | 0 | 0 | 0 | 0 | 0 | 0 | 0 | 0 | 0 | 0 | 0 | 0 | 0 | 0 | 0 | 0 | 0 | 0 | Plant response rating, Galium ([1]; 31 g ai/ha): 0; Plant response rating, Blackgrass ([2]; 31 g ai/ha): 0; Plant response rating, Ragweed ([3]; 31 g ai/ha): 0; Plant response rating, Foxtail, Giant ([4]; 31 g ai/ha): 0; Plant response rating, Ragweed ([5]; 31 g ai/ha): 0; Plant response rating, Barnyardgrass ([6]; 31 g ai/ha): 0; Plant response rating, Kochia (kochia (Kochia scoparia) [7]; 31 g ai/ha): 0; Plant response rating, Kochia (kochia (Kochia scoparia) [8]; 31 g ai/ha): 0; Plant response rating, Barnyardgrass ([9]; 31 g ai/ha): 0; Plant response rating, Pigweed ([10]; 31 g ai/ha): 0; Plant response rating, Pigweed ([11]; 31 g ai/ha): 0; Plant response rating, Foxtail, Giant ([12]; 31 g ai/ha): 0; Plant response rating, Ryegrass, Italian ([13]; 31 g ai/ha): 0; Plant response rating, Corn (corn (Zea mays); 31 g ai/ha): 0; Plant response rating, Ryegrass, Italian ([14]; 31 g ai/ha): 0; Plant response rating, Wheat ([15]; 31 g ai/ha): 0
FC(F)c1cc(-c2ncccc2Oc2ncc(Cl)cn2)no1 [Compound 6, 5-chloro-2-[[2-[5-(difluoromethyl)-3-isoxazolyl]-3-pyridinyl]oxy]pyrimidine] | 70 | 30 | 20 | 50 | 40 | 40 | 70 | 90 | 100 | 0 | 0 | 30 | 100 | 100 | 90 | 10 | 0 | 30 | 0 | 30 | Plant response rating, Galium ([1]; 31 g ai/ha): 50; Plant response rating, Blackgrass ([2]; 31 g ai/ha): 0; Plant response rating, Ragweed ([3]; 31 g ai/ha): 0; Plant response rating, Foxtail, Giant ([4]; 31 g ai/ha): 20; Plant response rating, Ragweed ([5]; 31 g ai/ha): 20; Plant response rating, Barnyardgrass ([6]; 31 g ai/ha): 0; Plant response rating, Kochia (kochia (Kochia scoparia) [7]; 31 g ai/ha): 60; Plant response rating, Kochia (kochia (Kochia scoparia) [8]; 31 g ai/ha): 90; Plant response rating, Barnyardgrass ([9]; 31 g ai/ha): 10; Plant response rating, Pigweed ([10]; 31 g ai/ha): 70; Plant response rating, Pigweed ([11]; 31 g ai/ha): 90; Plant response rating, Foxtail, Giant ([12]; 31 g ai/ha): 0; Plant response rating, Ryegrass, Italian ([13]; 31 g ai/ha): 0; Plant response rating, Corn (corn (Zea mays); 31 g ai/ha): 20; Plant response rating, Ryegrass, Italian ([14]; 31 g ai/ha): 0; Plant response rating, Wheat ([15]; 31 g ai/ha): 20
